Measurements: patent US20080039319A1, “Fungicidal Mixtures and Novel Triazolopyrimidines” (Basf Aktiengesellschaft, priority 2004, published 2008)

Key:
[1] = system: Pyrenophora [syn. Drechslera] teres; assay: Use Example 4: activity against net blotch of barley caused by Pyrenophora teres, 1-day protective application (first test); format: in vivo; settings: individual active compound
Alternaria solani [2] = assay: Comparative Test 1: activity against early blight of tomato caused by Alternaria solani; format: in vivo; settings: individual active compound
Phytophthora infestans = settings: in vivo
Plasmopara viticola = assay: Comparative Test 3: activity against Peronospora of grapevines caused by Plasmopara viticola; format: in vivo; settings: individual active compound
Botrytis cinerea = assay: Use Example 7: activity against gray mold on bell pepper leaves caused by Botrytis cinerea, protective application; format: in vivo; settings: individual active compound
[3] = system: Pyrenophora [syn. Drechslera] teres; assay: Use Example 4: net blotch of barley caused by Pyrenophora teres, second test; format: in vivo; settings: individual active compound
[4] = system: Erysiphe [syn. Blumeria] graminis forma specialis. Tritici; assay: Use Example 5: activity against mildew of wheat caused by Erysiphe [syn. Blumeria] graminis forma specialis tritici, 3-day protective application; format: in vivo, Erysiphe graminis f. sp. tritici; settings: individual active compound
Sphaerotheca fuliginea = assay: Use Example 8: activity against mildew on cucumber leaves caused by Sphaerotheca fuliginea, protective application; settings: in vivo
Alternaria solani [5] = assay: Use Example 6: activity against early blight of tomato caused by Alternaria solani (second test); format: in vivo; settings: individual active compound

## Fc1ccc([C@]2(Cn3cncn3)O[C@H]2c2ccccc2Cl)cc1 (racemic) [epoxiconazole (A-1), (2RS,3SR)-1-[3-(2-chlorophenyl)-2,3-epoxy-2-(4-fluorophenyl)propyl]-1H-1,2,4-triazole]
[1]; 1.25 ppm in the spray liquor
  Efficacy in % of the untreated control: 0%
[1]; 2.5 ppm in the spray liquor
  Efficacy in % of the untreated control: 20%
[1]; 5 ppm in the spray liquor
  Efficacy in % of the untreated control: 77%

## COCC(=O)N(c1c(C)cccc1C)C(C)C(=O)OC (racemic) [metalaxyl (C-1), methyl N-(methoxyacetyl)-N-(2,6-xylyl)-DL-alaninate]
Alternaria solani [2]; 6.25 ppm in the spray liquor
  Efficacy in % of the untreated control: 0%
Alternaria solani [2]; 50 ppm in the spray liquor
  Efficacy in % of the untreated control: 0%

## CC1CCN(c2c(-c3c(F)cccc3Cl)c(Cl)nc3ncnn23)CC1 [(π)]
Phytophthora infestans
  Efficacy in % of the untreated control: 0%
Plasmopara viticola; 5 ppm in the spray liquor
  Efficacy in % of the untreated control: 5%
Plasmopara viticola; 10 ppm in the spray liquor
  Efficacy in % of the untreated control: 19%
Alternaria solani [2]; 2.5 ppm in the spray liquor
  Efficacy in % of the untreated control: 0%
Alternaria solani [2]; 5 ppm in the spray liquor
  Efficacy in % of the untreated control: 21%
Alternaria solani [2]; 10 ppm in the spray liquor
  Efficacy in % of the untreated control: 44%

## O=C(Nc1ccccc1-c1ccc(Cl)cc1)c1cccnc1Cl [boscalid (L-2), 2-chloro-N-(4′-chlorobiphenyl-2-yl)nicotinamide]
Phytophthora infestans
  Efficacy in % of the untreated control: 0%

## O=C1C2CC=CCC2C(=O)N1SC(Cl)(Cl)Cl (stereo not shown) [captan (P-1), 2-trichloromethylsulfanyl-3a,4,7,7a-tetrahydroisoindole-1,3-dione]
Botrytis cinerea; 12.5 ppm in the spray liquor
  Efficacy in % of the untreated control: 11%
Botrytis cinerea; 100 ppm in the spray liquor
  Efficacy in % of the untreated control: 56%
Plasmopara viticola; 12.5 ppm in the spray liquor
  Efficacy in % of the untreated control: 0%
Plasmopara viticola; 50 ppm in the spray liquor
  Efficacy in % of the untreated control: 0%

## N#Cc1c(Cl)c(Cl)c(Cl)c(C#N)c1Cl [chlorothalonil (Q-1), 2,4,5,6-tetrachloroisophthalonitrile]
[3]; 12.5 ppm in the spray liquor
  Efficacy in % of the untreated control: 0%
[3]; 50 ppm in the spray liquor
  Efficacy in % of the untreated control: 0%
[3]; 100 ppm in the spray liquor
  Efficacy in % of the untreated control: 0%

## COc1ccc(C(=CC(=O)N2CCOCC2)c2ccc(Cl)cc2)cc1OC [dimethomorph (G-1), 3-(4-chlorophenyl)-3-(3,4-dimethoxyphenyl)-1-morpholin4-ylpropenone]
Alternaria solani [2]; 3.125 ppm in the spray liquor
  Efficacy in % of the untreated control: 0%
Alternaria solani [2]; 12.5 ppm in the spray liquor
  Efficacy in % of the untreated control: 0%
Alternaria solani [2]; 25 ppm in the spray liquor
  Efficacy in % of the untreated control: 0%
Alternaria solani [2]; 50 ppm in the spray liquor
  Efficacy in % of the untreated control: 0%

## N#Cc1sc2c(=O)c3ccccc3c(=O)c=2sc1C#N [dithianon (L-3), 5,10-dioxo-5,10-dihydronaphtho[2,3-b][1,4]dithiine-2,3-dicarbonitrile]
Phytophthora infestans
  Efficacy in % of the untreated control: 0%

## CC(Cc1ccc(C(C)(C)C)cc1)CN1CC(C)OC(C)C1 [fenpropimorph (D-1), 4-[3-(4-tert-butylphenyl)-2-methylpropyl]-2,6-dimethylmorpholine]
[4]; 15 ppm in the spray liquor
  Efficacy in % of the untreated control: 0%
[4]; 30 ppm in the spray liquor
  Efficacy in % of the untreated control: 67%

## N#Cc1c[nH]cc1-c1cccc2c1OC(F)(F)O2 [fludioxonil (O-1), 4-(2,2-difluorobenzo[1,3]dioxol-4-yl)-1H-pyrrole-3-carbonitrile]
Sphaerotheca fuliginea
  Efficacy in % of the untreated control: 56%

## OC(Cn1cncn1)(c1ccc(F)cc1)c1ccccc1F (stereo not shown) [flutriafol (A-2), 1-(4-fluorophenyl)-1-(2-fluorophenyl)-2-[1,2,4]triazol-1-ylethanol]
[1]; 1.25 ppm in the spray liquor
  Efficacy in % of the untreated control: 0%
[1]; 2.5 ppm in the spray liquor
  Efficacy in % of the untreated control: 0%
[1]; 5 ppm in the spray liquor
  Efficacy in % of the untreated control: 0%

## CC(C)NC(=O)N1CC(=O)N(c2cc(Cl)cc(Cl)c2)C1=O [iprodione (F-1), N-isopropyl-3-(3,5-dichlorophenyl)-2,4-dioxoimidazolidine-1-carboxamide]
Alternaria solani [5]; 12.5 ppm in the spray liquor
  Efficacy in % of the untreated control: 0%
Alternaria solani [5]; 100 ppm in the spray liquor
  Efficacy in % of the untreated control: 0%
[3]; 12.5 ppm in the spray liquor
  Efficacy in % of the untreated control: 0%
[3]; 50 ppm in the spray liquor
  Efficacy in % of the untreated control: 0%

## CC1(C)CCC(Cc2ccc(Cl)cc2)C1(O)Cn1cncn1 (stereo not shown) [metconazole (A-3), 5-(4-chlorobenzyl)-2,2-dimethyl-1-[1,2,4]triazol-1-ylmethylcyclopentanol]
[1]; 1.25 ppm in the spray liquor
  Efficacy in % of the untreated control: 0%
[1]; 2.5 ppm in the spray liquor
  Efficacy in % of the untreated control: 0%
[1]; 5 ppm in the spray liquor
  Efficacy in % of the untreated control: 0%

## CC(C)OC(=O)c1cc(C(=O)OC(C)C)cc([N+](=O)[O-])c1 [nitrophthal-isopropyl (N-1), diisopropyl 5-nitroisophthalate]
Botrytis cinerea; 12.5 ppm in the spray liquor
  Efficacy in % of the untreated control: 0%
Botrytis cinerea; 100 ppm in the spray liquor
  Efficacy in % of the untreated control: 33%

## COC(=O)N(OC)c1ccccc1COc1ccn(-c2ccc(Cl)cc2)n1 [pyraclostrobin (B-1), methyl N-{2-[1-(4-chlorophenyl)-1H-pyrazol-3-yloxymethyl]phenyl}(N-methoxy)carbamate]
Alternaria solani [5]; 0.3125 ppm in the spray liquor
  Efficacy in % of the untreated control: 22%
Alternaria solani [5]; 0.625 ppm in the spray liquor
  Efficacy in % of the untreated control: 56%

## S1SSSSSSS1 [sulfur (M-1), sulfur]
Botrytis cinerea; 0.3125 ppm in the spray liquor
  Efficacy in % of the untreated control: 22%
Botrytis cinerea; 0.625 ppm in the spray liquor
  Efficacy in % of the untreated control: 56%

## COC(=O)NC(=S)Nc1ccccc1NC(=S)NC(=O)OC [thiophanate-methyl (L-4), dimethyl 1,2-phenylenebis(iminocarbonothioyl)bis(carbamate)]
Alternaria solani [5]; 100 ppm in the spray liquor
  Efficacy in % of the untreated control: 0%
[3]; 6.3 ppm in the spray liquor
  Efficacy in % of the untreated control: 0%
[3]; 100 ppm in the spray liquor
  Efficacy in % of the untreated control: 0%

## manganese ethylenebis(dithiocarbamate) zinc complex [mancozeb (K-1)]
[3]; 6.3 ppm in the spray liquor
  Efficacy in % of the untreated control: 0%
[3]; 12.5 ppm in the spray liquor
  Efficacy in % of the untreated control: 0%
[3]; 50 ppm in the spray liquor
  Efficacy in % of the untreated control: 0%

## zinc ammoniate ethylenebis(dithiocarbamate) [metiram (K-2)]
[3]; 12.5 ppm in the spray liquor
  Efficacy in % of the untreated control: 0%
[3]; 50 ppm in the spray liquor
  Efficacy in % of the untreated control: 0%
[3]; 100 ppm in the spray liquor
  Efficacy in % of the untreated control: 0%
